From patent publication US12502382B2, “EPAC1 inhibitors for the treatment of idiopathic pulmonary fibrosis” (INSERM (Institut National de la Santé et de la Recherche …, priority 2019, dated 2025)

Assays:
[1] = test system: Normal human lung fibroblast (NHLF); test: BrdU proliferation assay in normal human lung fibroblasts; type: cell-based; conditions: TGFβ treatment and serum stimulation (0.1% or 5% FBS), 48 hours, inhibitor 20 μM
Protocol: (§1) Cell Culture. Normal human lung fibroblast (NHLF) and lung fibroblast from IPF patients were purchased from Lonza, Inc. (Allendale, NJ) and cultured as recommended in FGM-2 medium supplemented with 5% fetal bovine serum (FBS) in 5% CO2 at 37° C. and passaged at the confluence. All the cell lines were tested by the manufacturers and negative for HIV-1, HBV, HCV, mycoplasma, bacteria, yeast, and fungi.
(§2) Pharmacological treatment. Cells were seeded at 250,000 cells/well in 6-well plates and maintained in a 37° C. incubator with 5% CO2 for 24 hrs prior to use. Cells were treated with TGF-β1 (2 ng/mL; 48 hrs) alone or in combination with either Epac1 inhibitor CE3F4 (20 μM; 48 hrs) or AM-001 (20 μM; 48 hrs).
(§3) The proliferation of NHLFs was measured by 5-bromo-2′-deoxyuridine (BrdU) incorporation using the Cell Proliferation ELISA, BrdU (colorimetric) assay (Roche, Indianapolis, IN), according to the manufacturer's instructions.

[2] = test system: fibrosis markers (COL1, COL3, CTGF, TGFβ) in NHLF cells; test: qPCR of TGF-β1-induced fibrosis marker mRNA in NHLF; type: cell-based, human; conditions: TGF-β1 2 ng/mL 48 hrs, inhibitor 20 μM 48 hrs
Protocol: as §1, §2
(§4) Total RNA was isolated using TRIzol™ (Invitrogen) and purified using RNeasy mini columns (Qiagen), according to the manufacturer's instructions. The cDNA synthesis kit (Applied Biosystems, Foster City, CA) was used to synthesized cDNA, as described by the manufacturer. Quantitative RT-PCR was performed using the PerfeCTa SYBR™ Green FastMix kit (Quantabio, Beverly, MA) and specific primers against the indicated genes, according to the manufacturer's instructions. Fold changes in gene expression were determined using the relative comparison method with normalization to GAPDH as an internal loading control.

[3] = test system: mouse model of bleomycin-induced pulmonary fibrosis; test: Hemodynamics and RV hypertrophy in bleomycin-induced pulmonary fibrosis mouse model; type: in vivo; conditions: 10 mg/kg i.p. every alternate day for 2 weeks
Protocol: Intratracheal bleomycin animal model. […] Animals were anesthetized by IP injection of xylazine/ketamine and were secured to a tray in the supine position. After intubation, the board was tilted at 45 degrees, and the IA-1C Microsprayer tip (PennCentury, Wyndmoor, PA) was inserted through the lumen of the angiocath. Animals were subjected to a single intratracheal injection of BLM (50 μL; 4 U/Kg) for 28 days.
Heart hemodynamic studies. The mice were anesthetized with (2-4%) isoflurane, intubated via tracheotomy, and mechanically ventilated with 1-2% isoflurane and oxygen (tidal volume, 6 mL/kg; respiratory rate, 100 breaths per minute). The thoracic cavity was opened, and the organs were accessed through a sternotomy. Once the pericardium was opened, and the heart was fully accessible, an ultrasonic flow probe (flow probe 2.5S176; Transonic Systems Inc., Ithaca, NY) was inserted into the RV to collect the right ventricular systolic pressure (RVSP). Hemodynamic data were recorded using a Scisense PV Control Unit (Scisense, Ontario, Canada).
Right Ventricular Weight Measurement. After the hemodynamic data were collected, the mice were harvested to collect the heart and lungs. […] The Fulton Index was calculated by the weight ratio of the RV weight to the LV plus septum weight (RV weight/LV+Septum weight) to specifically illustrate the RV hypertrophy. […]

[4] = test system: mouse model of bleomycin-induced pulmonary fibrosis; test: Histology (Masson's trichrome, H&E, WGA) in bleomycin-induced pulmonary fibrosis mouse model; type: in vivo
Protocol: Intratracheal bleomycin animal model. […] Animals were anesthetized by IP injection of xylazine/ketamine and were secured to a tray in the supine position. After intubation, the board was tilted at 45 degrees, and the IA-1C Microsprayer tip (PennCentury, Wyndmoor, PA) was inserted through the lumen of the angiocath. Animals were subjected to a single intratracheal injection of BLM (50 μL; 4 U/Kg) for 28 days. The pharmacological inhibitor of Epac1, AM-001, was injected intraperitoneally every alternate day (10 mg/kg) for 2 weeks.
Hematoxylin & Eosin and Masson's trichrome staining. Lung tissue was harvested, inflated with PBS/OCT (50:50), and fixed (frozen in −80° C.) in OCT. Sections were cut to 8 μm and adhered to colorfrost glass slides (ThermoFisher). Lung tissue sections were stained with hematoxylin and eosin (H&E) and Masson's trichrome (Sigma-Aldrich) and visualized using light microscopy. The medial thickness and collagen deposition were then quantified using ImageJ software.
RV sections were fixed in 1% paraformaldehyde (PFA) and stained using fluorescence-tagged wheat germ agglutinin (WGA) (Invitrogen) overnight at 4° C. and imaged with on Zeiss Observer Z.1 microscope (Carl Zeiss) at ×160 magnification. The outlines of cardiac myocytes were traced, and the cardiomyocyte area was calculated using ImageJ software.

[5] = test system: mouse model of bleomycin-induced pulmonary fibrosis; test: qPCR of marker mRNA in lung and RV tissues of bleomycin-challenged mice; type: in vivo
Protocol: Intratracheal bleomycin animal model. All of the animal experiments and handling were performed in accordance with NIH Guide for the Care and Use of Laboratory Animals. Animals were anesthetized by IP injection of xylazine/ketamine and were secured to a tray in the supine position. After intubation, the board was tilted at 45 degrees, and the IA-1C Microsprayer tip (PennCentury, Wyndmoor, PA) was inserted through the lumen of the angiocath. Animals were subjected to a single intratracheal injection of BLM (50 μL; 4 U/Kg) for 28 days. The pharmacological inhibitor of Epac1, AM-001, was injected intraperitoneally every alternate day (10 mg/kg) for 2 weeks.
as §4
Using a therapeutic strategy, mice were randomly allocated to a sham control-treated group that received intratracheal saline and PF group that received a single intratracheal aerosolization of BLM (4 U/kg). After 2 weeks, the BLM-challenged group was randomly assigned to receive either a vehicle or the Epac1 inhibitor AM-001 for two weeks (FIG. 4A). Vehicle or AM-001 was injected intraperitoneally every alternate day (10 mg/kg) for 2 weeks. […] To further investigate the potential therapeutic effect of Epac1 inhibition in PF, the interstitial fibrosis level and the vascular remodeling were next evaluated by histological analysis after 2 weeks of treatment. […] The inventors also measured by RT-qPCR the expression of several markers of fibrosis in the lung samples.

IPF fibroblasts [6] = test: BrdU proliferation assay in IPF fibroblasts; type: cell-based, human; conditions: basal condition, preliminary data
Protocol: as §1, §3

IPF fibroblasts [7] = test: qPCR of IL-6, α-SMA and FOXO3 mRNA in IPF fibroblasts; type: cell-based, human; conditions: 20 μM for 48 h
Protocol: as §1, §4

IPF fibroblasts [8] = test: Immunoblot of phospho-SMAD2/3, phospho-STAT3, phospho-AKT in IPF fibroblasts; type: cell-based, human; conditions: IPF fibroblast
Protocol: as §1
SDS-PAGE and Immunoblot Analysis. Protein lysates were prepared using RIPA lysis buffer (Boston BioProducts) containing a Protease/Phosphatase Inhibitor Cocktail (Pierce). After centrifugation for 20 min at 15000×g, the protein concentrations were determined using a bicinchoninic acid (BCA) assay (Sigma-Aldrich). The proteins were then separated by SDS-polyacrylamide gel electrophoresis and transferred to polyvinylidene difluoride membranes. The membranes were blocked with 5% Skim milk and hybridized overnight at 4° C. with the following primary antibodies: Epac1 (Cell signaling), phospho-SMAD2/3 (Cell signaling), phospho-STAT3 (Cell signaling), phospho-AKT (Cell signaling), Total AKT (Cell signaling), and GAPDH (Thermofisher). The membranes were then incubated with the appropriate secondary HRP-conjugated antibody (Cell signaling) for 1 hour, and the blots were developed using the ECL System (Thermofisher).

Epac1 = molecular target: T1, Epac1 (Homo sapiens, UniProt O95398); conditions: Laudette et al. 2019; cited from earlier work
T1 sequence (O95398 1-923): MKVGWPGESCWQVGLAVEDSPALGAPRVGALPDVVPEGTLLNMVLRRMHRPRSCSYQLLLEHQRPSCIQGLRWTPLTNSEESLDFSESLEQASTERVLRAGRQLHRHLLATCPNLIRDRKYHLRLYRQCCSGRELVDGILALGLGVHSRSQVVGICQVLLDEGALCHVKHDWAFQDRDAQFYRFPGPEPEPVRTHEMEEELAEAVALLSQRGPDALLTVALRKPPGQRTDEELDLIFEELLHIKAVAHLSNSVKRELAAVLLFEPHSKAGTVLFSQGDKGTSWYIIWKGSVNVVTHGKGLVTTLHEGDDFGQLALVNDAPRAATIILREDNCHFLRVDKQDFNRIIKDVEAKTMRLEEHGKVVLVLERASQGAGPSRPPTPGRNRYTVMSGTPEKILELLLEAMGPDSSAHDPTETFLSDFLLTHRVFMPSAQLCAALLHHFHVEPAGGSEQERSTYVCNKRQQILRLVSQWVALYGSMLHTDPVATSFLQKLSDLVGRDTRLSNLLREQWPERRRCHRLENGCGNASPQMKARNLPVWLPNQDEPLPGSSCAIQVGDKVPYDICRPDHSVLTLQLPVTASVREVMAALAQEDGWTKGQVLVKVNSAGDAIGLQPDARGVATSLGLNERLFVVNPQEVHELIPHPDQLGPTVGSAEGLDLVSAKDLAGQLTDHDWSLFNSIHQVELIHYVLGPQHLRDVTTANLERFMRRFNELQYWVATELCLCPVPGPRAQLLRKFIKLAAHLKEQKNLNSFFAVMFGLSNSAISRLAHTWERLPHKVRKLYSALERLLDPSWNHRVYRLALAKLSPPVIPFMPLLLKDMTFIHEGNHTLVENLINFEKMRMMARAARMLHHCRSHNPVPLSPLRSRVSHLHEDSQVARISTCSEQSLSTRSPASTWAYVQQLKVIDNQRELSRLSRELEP

Epac2 = Epac2 (Homo sapiens, UniProt Q8WZA2); conditions: Laudette et al. 2019; cited from earlier work
protein kinase A (PKA) = conditions: Laudette et al. 2019; cited from earlier work
[9] = test system: myocardial I/R injury and chronic β-AR activation; conditions: Laudette et al. 2019; cited from earlier work
[10] = prevents its use for in vivo applications; cited from earlier work
[11] = BLM-challenged mice, 10 mg/kg i.p. every alternate day for 2 weeks
[12] = BLM+AM-001 vs BLM+vehicle, WT mice

Epac2, sequence (Q8WZA2 whole entry, species assumed): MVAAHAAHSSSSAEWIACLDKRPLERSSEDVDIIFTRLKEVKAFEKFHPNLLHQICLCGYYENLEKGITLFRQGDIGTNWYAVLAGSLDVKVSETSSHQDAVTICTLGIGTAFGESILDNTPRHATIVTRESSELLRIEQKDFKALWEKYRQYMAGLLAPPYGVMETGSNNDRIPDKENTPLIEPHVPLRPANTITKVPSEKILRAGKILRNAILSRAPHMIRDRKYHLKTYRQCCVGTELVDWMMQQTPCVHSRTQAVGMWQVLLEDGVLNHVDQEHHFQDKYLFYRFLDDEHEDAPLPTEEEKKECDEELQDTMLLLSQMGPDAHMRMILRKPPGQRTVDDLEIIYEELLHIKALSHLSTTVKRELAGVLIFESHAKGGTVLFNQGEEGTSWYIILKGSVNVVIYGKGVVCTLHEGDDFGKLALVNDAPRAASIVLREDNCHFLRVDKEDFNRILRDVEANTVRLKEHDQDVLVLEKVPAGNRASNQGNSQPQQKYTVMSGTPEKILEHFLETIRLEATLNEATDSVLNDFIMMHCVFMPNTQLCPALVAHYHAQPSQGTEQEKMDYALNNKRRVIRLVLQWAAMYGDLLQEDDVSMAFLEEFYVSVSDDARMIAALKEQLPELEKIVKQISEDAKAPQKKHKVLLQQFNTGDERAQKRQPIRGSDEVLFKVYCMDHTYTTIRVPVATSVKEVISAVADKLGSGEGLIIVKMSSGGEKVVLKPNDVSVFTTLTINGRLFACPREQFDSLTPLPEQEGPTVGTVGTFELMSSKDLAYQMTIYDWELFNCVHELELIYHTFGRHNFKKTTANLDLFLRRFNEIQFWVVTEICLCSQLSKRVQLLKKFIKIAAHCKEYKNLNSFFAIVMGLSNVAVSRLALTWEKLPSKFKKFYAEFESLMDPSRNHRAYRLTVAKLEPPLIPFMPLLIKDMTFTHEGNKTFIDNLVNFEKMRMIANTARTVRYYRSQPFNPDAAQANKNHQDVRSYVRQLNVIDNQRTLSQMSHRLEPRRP

## Nc1c(C(=O)Nc2ccc(F)cc2)sc2nc(-c3cccs3)cc(-c3ccccc3)c12 [AM-001, 3-amino-N-(4-fluorophenyl)-4-phenyl-6-(thiophen-2-yl)thieno[2,3-b]pyridine-2-carboxamide]
[1]
  proliferation of NHLFs (BrdU): inhibited
[2]
  mRNA expression of fibrosis markers (COL1, COL3, CTGF, TGFβ) induced by TGFβ: impaired the upregulation
[3]; BLM 4 U/kg intratracheal, vs control group
  right ventricular systolic pressure (RVSP): reduction
[3]; BLM-challenged mice
  RV hypertrophy (Fulton Index): significantly decreased
[4]; BLM mice, vs vehicle-treated BLM mice
  pulmonary vascular remodeling (medial thickness of distal pulmonary arteries): markedly diminished
[4]; [11]
  cardiomyocyte size in RV (WGA staining): reduction
[4]; BLM-challenged mice, 10 mg/kg i.p. every alternate day for 2 weeks, vs vehicle
  interstitial and perivascular fibrosis (Masson's trichrome): significantly decreased
[5]; [12]
  FGFR1 mRNA level: significantly decreasing
  TNC mRNA level: trend decrease
[5]; BLM-challenged mice, RV tissues
  upregulation of fibrosis and hypertrophic gene markers (ANP, BNP, β-MHC) in RV: compromised
[5]; [11]
  COLI mRNA level in lung samples: markedly reduced
  COLIII mRNA level in lung samples: markedly reduced
  CTGF mRNA level in lung samples: markedly reduced
  TGFβ mRNA level in lung samples: markedly reduced
IPF fibroblasts [6]
  IPF fibroblasts proliferation (BrdU): decrease
IPF fibroblasts [7]
  FOXO3 mRNA expression: restored
  IL-6 mRNA expression: attenuates
  α-SMA mRNA expression: attenuates
IPF fibroblasts [8]
  phosphorylation of AKT: decreased
  phosphorylation of SMAD2/3: decreased
  phosphorylation of STAT3: decreased
Epac1
  inhibitory activity toward Epac1: selective inhibitory activity
Epac2
  antagonist effect on Epac2: no antagonist effect
Protein kinase A (PKA)
  antagonist effect on protein kinase A (PKA) activity: no antagonist effect
[9]
  cardioprotection against myocardial I/R injury and detrimental effects of chronic β-AR activation: cardioprotective properties

## CC1CCc2c(cc(Br)c(F)c2Br)N1C=O (stereo not shown) [CE3F4]
[1]
  proliferation of NHLFs (BrdU): significantly decreased
[2]
  mRNA expression of fibrosis markers (COL1, COL3, CTGF, TGFβ) induced by TGFβ: impaired the induction
[10]
  biodisponibility: low
